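The compound was tested at five concentrations on cells cultured in 96-well plates, with a 48-hour exposure period. GI50 = concentration required for 50% inhibition of growth.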 Active and inactive are the calls of the source. Rule as the data show it: active = GI50 up to about 1.1 µM and inactive = higher.
Tests used:
Assay in all cases: NCI-60 cell line screen, 48 h
EKVX = tested on: EKVX
OVCAR-8 = tested on: OVCAR-8
Hs-578T = tested on: Hs-578T
UACC-62 = tested on: UACC-62
NCI-H522 = tested on: NCI-H522
SF-295 = tested on: SF-295
SN12C = tested on: SN12C
UACC-257 = tested on: UACC-257
MDA-N = tested on: MDA-N
OVCAR-3 = tested on: OVCAR-3
CAKI-1 = tested on: CAKI-1
BT-549 = tested on: BT-549
HL-60 = tested on: HL-60
ACHN = tested on: ACHN
DU-145 = tested on: DU-145
HOP-62 = tested on: HOP-62
SK-OV-3 = tested on: SK-OV-3
UO-31 = tested on: UO-31
SR = tested on: SR
M14 = tested on: M14

| Compound | GI50 (EKVX) | GI50 (OVCAR-8) | GI50 (Hs-578T) | GI50 (UACC-62) | GI50 (NCI-H522) | GI50 (SF-295) | GI50 (SN12C) | GI50 (UACC-257) | GI50 (MDA-N) | GI50 (OVCAR-3) | GI50 (CAKI-1) | GI50 (BT-549) | GI50 (HL-60) | GI50 (ACHN) | GI50 (DU-145) | GI50 (HOP-62) | GI50 (SK-OV-3) | GI50 (UO-31) | GI50 (SR) | GI50 (M14) |
| --- | --- | --- | --- | --- | --- | --- | --- | --- | --- | --- | --- | --- | --- | --- | --- | --- | --- | --- | --- | --- |
| O=c1ccn(CC2(CO)CCC2)c(=O)[nH]1 | > 100 µM (inactive) | > 100 µM (inactive) | > 100 µM (inactive) | > 100 µM (inactive) | > 100 µM (inactive) | > 100 µM (inactive) | > 100 µM (inactive) | > 100 µM (inactive) | > 100 µM (inactive) | > 100 µM (inactive) | > 100 µM (inactive) | > 100 µM (inactive) | > 100 µM (inactive) | > 100 µM (inactive) | > 100 µM (inactive) | > 100 µM (inactive) | > 100 µM (inactive) | > 100 µM (inactive) | > 100 µM (inactive) | – |
| Cc1ccc(-c2cc(-c3ccc(Cl)cc3)nc(/N=C3\C(=O)N(CN4CCOCC4)c4ccc(Cl)cc43)n2)cc1 | 15.2 µM (inactive) | 20.9 µM (inactive) | 24.3 µM (inactive) | 19.8 µM (inactive) | 15.4 µM (inactive) | 35.7 µM (inactive) | 24.7 µM (inactive) | 33.3 µM (inactive) | 32.6 µM (inactive) | 33.3 µM (inactive) | 23 µM (inactive) | 21.8 µM (inactive) | 11.6 µM (inactive) | 19.9 µM (inactive) | 20.5 µM (inactive) | 20.3 µM (inactive) | 35.6 µM (inactive) | 24.9 µM (inactive) | 9.38 µM (inactive) | 26.4 µM (inactive) |
| COC(=O)C1=C(C)NC(C)=C(C(=O)OC)C1c1cccc(NO)c1 | 22.2 µM (inactive) | 16.4 µM (inactive) | 18.4 µM (inactive) | 17.5 µM (inactive) | 7 µM (inactive) | 25.9 µM (inactive) | 18.5 µM (inactive) | 14.4 µM (inactive) | 15.1 µM (inactive) | 16 µM (inactive) | 13.2 µM (inactive) | 18.4 µM (inactive) | – | 12.8 µM (inactive) | 22 µM (inactive) | 32.3 µM (inactive) | > 100 µM (inactive) | 11.5 µM (inactive) | > 100 µM (inactive) | 18.9 µM (inactive) |
| NC(=O)CN1CCN(c2nc(N3CCCC3)c3nc(Cl)c(NCc4ccccc4)nc3n2)CC1 | 11.8 µM (inactive) | 15 µM (inactive) | 9.66 µM (inactive) | 9.2 µM (inactive) | 10.4 µM (inactive) | 8.89 µM (inactive) | 9.48 µM (inactive) | 9.98 µM (inactive) | 8.67 µM (inactive) | 8.39 µM (inactive) | 17 µM (inactive) | 10 µM (inactive) | 8.77 µM (inactive) | 12.4 µM (inactive) | 11.5 µM (inactive) | 0.525 µM (active) | 9.91 µM (inactive) | 10.7 µM (inactive) | – | 9.91 µM (inactive) |
| Oc1cc2c3c(c1)CCCN3CCC2 | > 10 µM (inactive) | > 10 µM (inactive) | > 10 µM (inactive) | > 10 µM (inactive) | > 10 µM (inactive) | > 10 µM (inactive) | > 10 µM (inactive) | > 10 µM (inactive) | > 10 µM (inactive) | > 10 µM (inactive) | > 10 µM (inactive) | > 10 µM (inactive) | > 10 µM (inactive) | > 10 µM (inactive) | > 10 µM (inactive) | > 10 µM (inactive) | > 10 µM (inactive) | – | > 10 µM (inactive) | > 10 µM (inactive) |
| C/C(CC/C(C)=N/O)=N\O | > 100 µM (inactive) | > 100 µM (inactive) | > 100 µM (inactive) | > 100 µM (inactive) | > 100 µM (inactive) | > 100 µM (inactive) | > 100 µM (inactive) | > 100 µM (inactive) | > 100 µM (inactive) | > 100 µM (inactive) | > 100 µM (inactive) | > 100 µM (inactive) | > 100 µM (inactive) | > 100 µM (inactive) | > 100 µM (inactive) | > 100 µM (inactive) | > 100 µM (inactive) | > 100 µM (inactive) | – | > 100 µM (inactive) |
| CC[C@H]1C=CCC[C@@]2(C[C@@H]3CC[C@@H]4[C@H](C(=O)OCCCCCCCCCCCCCCCC(=O)N(CCCN)CCCCN)[C@]5(CCC[C@@H](C)O5)NC(=[N+]34)N2)O1 | 0.11 µM (active) | 0.155 µM (active) | 0.0875 µM (active) | 0.0185 µM (active) | 0.0425 µM (active) | 0.024 µM (active) | 0.0753 µM (active) | 0.0171 µM (active) | 0.0121 µM (active) | 0.0738 µM (active) | 0.0908 µM (active) | 0.138 µM (active) | – | 0.0826 µM (active) | 0.348 µM (active) | 0.0415 µM (active) | 0.136 µM (active) | 0.0519 µM (active) | 0.0281 µM (active) | < 0.01 µM (active) |

— ChEMBL document CHEMBL1201862, “PubChem BioAssay data set” (2004)
